Three substances from patent US20210221848A1, “POLYMYXIN DERIVATIVES AND THEIR USE IN COMBINATION THERAPY TOGETHER WITH DIFFERENT ANTIBIOTICS” (priority 2014, published 2021) can be followed below.

The subject of data set [1] is P. aeruginosa. Particulars: absence of a second agent, Table 6B.
Data set [2] deals with A. baumannii. Particulars: absence of a second agent, Table 6B.
The test system of data set [3] is K. pneumoniae. Particulars: absence of a second agent, Table 6B.
The test system of data set [4] is E. coli. The following applies: absence of a second agent, Table 6B.
Data set [5] has as its system Escherichia coli ATCC 25922. Particulars: mouse thigh, 1.47 mg/kg/dose free base IV at 1, 3.5 and 6 h post-infection, 9 h model.
In data set [6] the test system is HK-2 cell line. Kind of data set: In vitro renal cell toxicity assay (resazurin reduction). As for the experimental part: MICs were determined as described herein. HK-2 cell IC50 values were determined as described herein. Values are reported relative to Polymyxin B.
For orientation: The colour change of resazurin is a common sign of viable cells or microbes.

In data set [7] the test system is P. aeruginosa ATCC 27853. Kind of data set: In vivo efficacy, thigh infection in mice, IV dosing, 9 h model. Set-up: species or system Pseudomonas aeruginosa. Particulars: mouse thigh, dose 3.4 mg/kg drug base IV at 1, 3.5 and 6 h post-infection. As for the experimental part: Compounds were administered in solution by intravenous (IV) bolus injection into the lateral tail vein. […] At 1 hour post infection, 4 animals were humanely euthanized using pentabarbitone overdose to provide a pre-treatment control group. At 9 hours post infection, the clinical condition of all animals was assessed prior to them being humanely euthanized by pentabarbitone overdose. Animal weight was determined before both thighs were removed and weighed individually. Individual thigh tissue samples were homogenized in ice cold sterile phosphate buffered saline. Thigh homogenates were then quantitatively cultured onto cystine lactose electrolyte deficient (CLED) agar and incubated at 37° C. for 24 hours before colonies were counted.

The test system of data set [8] is A. baumannii. Kind of data set: MIC in the presence of […] of rifampicin. The data set is classed as cell-based, Acinetobacter baumannii.
The test system of data set [9] is K. pneumoniae. Kind of data set: MIC in the presence of a fixed concentration (2 μg/mL) of Rifampicin. The following applies: Rifampicin 2 μg/mL. The format is cell-based, Klebsiella pneumoniae.
Data set [10] relates to E. coli. The description is as above. The format is cell-based, Escherichia coli. The following applies: Rifampicin 2 μg/mL.
The mark [11] stands for this setting: A. baumannii ATCC BAA-747, Table 5C.
The mark [12] stands for this setting: A. baumannii ATCC BAA-747, Table 5D.
Where [13] appears, read: A. baumannii NCTC 13424, Table 5C.
[14] abbreviates: A. baumannii NCTC 13424, Table 5D.

With “(S)-1-benzyl piperazine-2-carbonyl polymyxin B nonapeptide [Example D52]”, in data set [1], the “MIC, P. aeruginosa ATCC 27853” value was 0.5 micrograms/mL and the “MIC, P. aeruginosa CCUG 59347” value came out at 0.5 micrograms/mL. Besides, in data set [2], the “MIC, A. baumannii ATCC BAA-747” value amounted to 0.5 micrograms/mL and the “MIC, A. baumannii NCTC 13424” value worked out at 0.25 micrograms/mL. In data set [3], the “MIC, K. pneumoniae ATCC 4352” value was 0.125 micrograms/mL and the “MIC, K. pneumoniae ATCC BAA-2146” value worked out at 0.25 micrograms/mL. Also, in data set [4], the “MIC, E. coli ATCC 25922” value stood at 0.125 micrograms/mL and the “MIC, E. coli NCTC 13441” value worked out at 0.125 micrograms/mL. For the same substance, the “Mean log10 CFU reduction vs. control” value in data set [5] is 4.04 log10 CFU.

“1,2,3,4- tetrahydroisoquinoline- 4-carbonyl polymyxin B nonapeptide [Example D15]”: in [1], the “MIC, P. aeruginosa ATCC 27853” value stood at 0.25 micrograms/mL and the “MIC, P. aeruginosa CCUG 59347” value was 0.5 micrograms/mL. In addition, the “HK-2 IC50 rel to PMB” value in data set [6] was determined as 17. For the same substance, in data set [2], the “MIC, A. baumannii ATCC BAA-747” value is reported as 2 micrograms/mL and the “MIC, A. baumannii NCTC 13424” value is 2 micrograms/mL. Moreover, the “Log reduction from vehicle (CFU/g)” value in data set [7] is on record as 3.89 log10 CFU/g. The “MIC in combination with Rifampicin, A. baumannii ATCC BAA-747” value in [8] (setting [11]) is recorded as no more than 0.015 micrograms/mL. Also, the “MIC in combination with Rifampicin, A. baumannii ATCC BAA-747” value in data set [8] (setting [12]) is given as no more than 0.015 micrograms/mL. Also, the “MIC in combination with Rifampicin, A. baumannii NCTC 13424” value in data set [8] (setting [13]) is reported as no more than 0.015 micrograms/mL. Moreover, in data set [8] (setting [14]), the “MIC in combination with Rifampicin, A. baumannii NCTC 13424” value is no more than 0.015 micrograms/mL. Moreover, in [4], the “MIC, E. coli ATCC 25922” value is 0.25 micrograms/mL and the “MIC, E. coli NCTC 13441” value is given as 0.5 micrograms/mL. For the same substance, in [9] (Table 5C), the “MIC in combination with Rifampicin, K. pneumoniae ATCC 4352” value came out at 0.03 micrograms/mL and the “MIC in combination with Rifampicin, K. pneumoniae ATCC BAA-2146” value was 0.125 micrograms/mL. Besides, in [9] (Table 5D), the “MIC in combination with Rifampicin, K. pneumoniae ATCC 4352” value is listed as no more than 0.015 micrograms/mL and the “MIC in combination with Rifampicin, K. pneumoniae ATCC BAA-2146” value is recorded as 0.125 micrograms/mL. In [10] (Table 5C), the “MIC in combination with Rifampicin, E. coli ATCC 25922” value is no more than 0.015 micrograms/mL and the “MIC in combination with Rifampicin, E. coli NCTC 13441” value is given as 0.03 micrograms/mL. Also, in data set [10] (Table 5D), the “MIC in combination with Rifampicin, E. coli ATCC 25922” value is no more than 0.015 micrograms/mL and the “MIC in combination with Rifampicin, E. coli NCTC 13441” value is recorded as 0.03 micrograms/mL.

With “(cis-5-cyclohexyl- piperidine)-3-carbonyl polymyxin B nonapeptide [Example D11]”, in data set [1], the “MIC, P. aeruginosa ATCC 27853” value is 0.5 micrograms/mL and the “MIC, P. aeruginosa CCUG 59347” value was 0.5 micrograms/mL. For the same substance, in data set [2], the “MIC, A. baumannii ATCC BAA-747” value turned out to be 1 micrograms/mL and the “MIC, A. baumannii NCTC 13424” value is 0.5 micrograms/mL. Further, in data set [3], the “MIC, K. pneumoniae ATCC 4352” value was found to be 0.25 micrograms/mL and the “MIC, K. pneumoniae ATCC BAA-2146” value is reported as 0.25 micrograms/mL. In data set [7], the “Log reduction from vehicle (CFU/g)” value is listed as 3.86 log10 CFU/g. Besides, the “MIC in combination with Rifampicin, A. baumannii ATCC BAA-747” value in [8] (setting [11]) is 0.06 micrograms/mL. In data set [8] (setting [12]), the “MIC in combination with Rifampicin, A. baumannii ATCC BAA-747” value was 0.125 micrograms/mL. Further, in data set [8] (setting [13]), the “MIC in combination with Rifampicin, A. baumannii NCTC 13424” value is recorded as 0.5 micrograms/mL. Further, the “MIC in combination with Rifampicin, A. baumannii NCTC 13424” value in data set [8] (setting [14]) turned out to be 0.25 micrograms/mL. In [4], the “MIC, E. coli ATCC 25922” value was 0.25 micrograms/mL and the “MIC, E. coli NCTC 13441” value is listed as 0.25 micrograms/mL. Besides, in data set [9] (Table 5C), the “MIC in combination with Rifampicin, K. pneumoniae ATCC 4352” value came out at 0.06 micrograms/mL and the “MIC in combination with Rifampicin, K. pneumoniae ATCC BAA-2146” value came to 1 micrograms/mL. In data set [9] (Table 5D), the “MIC in combination with Rifampicin, K. pneumoniae ATCC 4352” value is recorded as 0.125 micrograms/mL and the “MIC in combination with Rifampicin, K. pneumoniae ATCC BAA-2146” value came out at 0.5 micrograms/mL. Further, in data set [10] (Table 5C), the “MIC in combination with Rifampicin, E. coli ATCC 25922” value is listed as no more than 0.015 micrograms/mL and the “MIC in combination with Rifampicin, E. coli NCTC 13441” value is 0.06 micrograms/mL. In [10] (Table 5D), the “MIC in combination with Rifampicin, E. coli ATCC 25922” value was determined as 0.125 micrograms/mL and the “MIC in combination with Rifampicin, E. coli NCTC 13441” value was 0.06 micrograms/mL.
